In brackets after ≈: the same amount, converted by molar mass. Where two headings read alike, the source gives them in different places.
Key:
drug-resistant fungi = settings: ref [17]; cited from earlier work
[1] = tested on: Candida albicans ATCC 10321; assay: microbe, parasite or virus in culture; format: cell-based
[2] = tested on: Candida albicans, Candida glabrata, Candida krusei, and Candida tropicalis; settings: Candida albicans, glabrata, krusei, tropicalis; ref [17]; cited from earlier work
[3] = tested on: Aspergillus niger ATCC 16404; assay: microbe, parasite or virus in culture; format: cell-based
[4] = tested on: C26 colon carcinoma cell line; assay: MTT cytotoxicity, C26; format: cell-based; settings: 48 h, read-out: Anticancer activity IC50, C26
[5] = tested on: HepG2 human hepatocyte carcinoma cell line; assay: MTT cytotoxicity, HepG2; format: cell-based; settings: HepG2, 48 h, read-out: Anticancer activity IC50, HepG2
[6] = tested on: H69PR human small cell lung cancer cell line; assay: MTT cytotoxicity, H69PR; format: cell-based; settings: 48 h, read-out: Anticancer activity IC50, H69PR
[7] = tested on: MCF7 human breast cancer cell line; assay: MTT cytotoxicity, MCF7; format: cell-based; settings: MCF7, 48 h, read-out: Anticancer activity IC50, MCF7
[8] = tested on: Escherichia coli ATCC 25922; assay: Microtitre broth dilution MIC, Escherichia coli; format: cell-based; settings: ATCC25922, read-out: MIC, EC
[9] = tested on: Streptococcus faecalis ATCC 29212; assay: Microtitre broth dilution MIC, Streptococcus faecalis; format: cell-based; settings: Enterococcus faecalis, ATCC29212, read-out: MIC, SF
[10] = tested on: methicillin-resistant strains of Staphylococcus aureus ATCC 43300; assay: Microtitre broth dilution MIC, MRSA; format: cell-based; settings: ATCC43300|MRSA, read-out: MIC, MRSA
[11] = tested on: methicillin-susceptible strains of Staphylococcus aureus ATCC 29213; assay: Microtitre broth dilution MIC, MSSA; format: cell-based; settings: ATCC29213|MSSA, read-out: MIC, MSSA
[12] = tested on: Salmonella enterica ATCC 10428; assay: Microtitre broth dilution MIC, Salmonella enterica; format: cell-based; settings: ATCC10428, read-out: MIC, SE
[13] = tested on: Pseudomonas aeruginosa ATCC 27853; assay: Microtitre broth dilution MIC, Pseudomonas aeruginosa; format: cell-based; settings: ATCC27853, read-out: MIC, PA
VEGFR-2 = VEGFR-2 (Homo sapiens, UniProt P35968); assay: In vitro VEGFR-2 kinase inhibition assay; format: biochemical
DHFR = biological target: T1, DHFR (Homo sapiens, UniProt P00374); assay: In vitro dihydrofolate reductase inhibition assay; format: biochemical; settings: IC50 DHFR inhibitory activity, IC50 ± SEM
T1 sequence (P00374 1-187): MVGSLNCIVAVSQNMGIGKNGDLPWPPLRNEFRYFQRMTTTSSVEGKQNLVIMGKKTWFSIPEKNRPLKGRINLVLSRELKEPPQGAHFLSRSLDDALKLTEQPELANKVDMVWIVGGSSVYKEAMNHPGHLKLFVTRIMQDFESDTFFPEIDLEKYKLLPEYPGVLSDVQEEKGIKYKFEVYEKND

[14] = tested on: bacterial strains (EC, PA, SF, SE, MSSA, MRSA) and fungi (CA, AN); assay: Microtitre broth dilution MIC, stated over several strains; format: cell-based; settings: strains SF, SE, MSSA, and MRSA

Sequence of VEGFR-2 (P35968 20-1356): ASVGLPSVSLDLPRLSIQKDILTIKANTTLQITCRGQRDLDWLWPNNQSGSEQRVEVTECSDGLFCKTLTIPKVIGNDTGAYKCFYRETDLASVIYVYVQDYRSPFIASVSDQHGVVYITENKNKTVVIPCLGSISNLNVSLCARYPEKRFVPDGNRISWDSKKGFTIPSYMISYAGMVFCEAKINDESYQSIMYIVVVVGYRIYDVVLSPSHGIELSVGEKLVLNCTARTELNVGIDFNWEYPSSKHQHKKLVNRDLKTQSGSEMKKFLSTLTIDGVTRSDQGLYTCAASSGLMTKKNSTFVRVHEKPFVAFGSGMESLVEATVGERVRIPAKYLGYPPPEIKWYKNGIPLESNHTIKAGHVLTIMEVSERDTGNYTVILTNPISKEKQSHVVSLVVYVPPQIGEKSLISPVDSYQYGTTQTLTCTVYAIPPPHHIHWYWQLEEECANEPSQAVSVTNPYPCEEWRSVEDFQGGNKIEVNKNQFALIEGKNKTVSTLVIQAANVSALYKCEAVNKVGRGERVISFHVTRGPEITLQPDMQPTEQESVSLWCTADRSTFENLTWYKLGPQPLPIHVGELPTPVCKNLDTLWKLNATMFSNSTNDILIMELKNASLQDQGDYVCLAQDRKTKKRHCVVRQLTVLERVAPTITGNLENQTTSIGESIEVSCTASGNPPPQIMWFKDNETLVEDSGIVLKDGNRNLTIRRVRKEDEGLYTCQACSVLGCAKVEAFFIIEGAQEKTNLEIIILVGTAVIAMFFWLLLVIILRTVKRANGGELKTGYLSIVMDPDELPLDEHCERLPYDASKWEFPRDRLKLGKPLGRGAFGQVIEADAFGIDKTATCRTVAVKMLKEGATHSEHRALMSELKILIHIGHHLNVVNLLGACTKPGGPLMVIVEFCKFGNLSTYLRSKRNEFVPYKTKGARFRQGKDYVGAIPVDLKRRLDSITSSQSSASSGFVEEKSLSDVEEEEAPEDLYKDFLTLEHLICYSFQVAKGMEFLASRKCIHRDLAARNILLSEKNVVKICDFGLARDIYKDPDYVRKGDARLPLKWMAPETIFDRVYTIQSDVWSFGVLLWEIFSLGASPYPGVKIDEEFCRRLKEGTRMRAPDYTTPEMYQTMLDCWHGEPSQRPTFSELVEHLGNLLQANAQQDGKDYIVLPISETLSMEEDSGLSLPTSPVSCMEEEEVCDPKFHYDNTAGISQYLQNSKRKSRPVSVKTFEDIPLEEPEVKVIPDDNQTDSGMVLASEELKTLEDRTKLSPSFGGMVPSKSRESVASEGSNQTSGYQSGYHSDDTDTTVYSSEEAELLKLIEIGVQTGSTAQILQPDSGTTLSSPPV

Row | Structure (SMILES) | MIC50, drug-resistant fungi (drug-resistant fungi) [µg/mL] | MIC ([1]; ATCC10321, read-out: MIC, CA) [µg/mL] | MIC50, Candida species [2] [µg/mL] | MIC ([3]; ATCC16404, read-out: MIC, AN) [µg/mL] | IC50 [4] [µM] | IC50 [5] [µM] | IC50 [6] [µM] | IC50 [7] [µM] | MIC [8] [µg/mL] | MIC ([1]; ATCC10321, 72 h, read-out: MIC, CA) [µg/mL] | MIC [9] [µg/mL] | MIC [10] [µg/mL] | MIC [11] [µg/mL] | MIC [12] [µg/mL] | MIC [13] [µg/mL] | MIC ([3]; ATCC16404, 72 h, read-out: MIC, AN) [µg/mL] | IC50 (VEGFR-2; IC50 VEGFR-2 inhibitory activity, IC50 ± SEM) [µM] | inhibitory activity on VEGFR-2 relative to DHFR (VEGFR-2; times better on the VEGFR-2 receptor than the DHFR receptor) | IC50 (DHFR) [µM] | fold antibacterial activity relative to compound 5b [14]
1 | OC(Cn1cncn1)(Cn1cncn1)c1ccc(F)cc1F [Flu, fluconazole, reference compound] | > 16 | 4 (≈ 13.1 µM) | 0.25 to 2.00 | 128 (≈ 418 µM) | – | – | – | – | – | – | – | – | – | – | – | – | – | – | – | –
2 | CC(=O)O[C@H]1C(=O)[C@@]2(C)[C@H]([C@H](OC(=O)c3ccccc3)[C@]3(O)C[C@H](OC(=O)[C@H](O)[C@@H](NC(=O)c4ccccc4)c4ccccc4)C(C)=C1C3(C)C)[C@]1(OC(C)=O)CO[C@@H]1C[C@@H]2O [PTX, paclitaxel, reference compound] | – | – | – | – | 3.96 ± 0.54 | 5.75 ± 0.6 | 7.29 ± 0.91 | 2.85 ± 0.43 | – | – | – | – | – | – | – | – | – | – | – | –
3 | COc1ccc(CNC(=O)c2cc(O)c3cc(OC)cc(OC)c3c2)cc1 [6a, 4-Hydroxy-6,8-dimethoxy-N-(4-methoxybenzyl)-2-naphthamide] | – | – | – | – | 14.4 ± 1.62 | 17.4 ± 1.51 | 29.2 ± 2.65 | 15.9 ± 1.28 | 64 (≈ 174 µM) | 256 (≈ 697 µM) | 64 (≈ 174 µM) | 128 (≈ 348 µM) | 32 (≈ 87.1 µM) | 64 (≈ 174 µM) | 64 (≈ 174 µM) | 256 (≈ 697 µM) | – | – | – | –
4 | COc1cc(OC)c2cc(C(=O)NCCCN3CCOCC3)cc(O)c2c1 [4a, 4-Hydroxy-6,8-dimethoxy-N-(3-morpholinopropyl)-2-naphthamide] | – | 128 (≈ 342 µM) | – | 256 (≈ 684 µM) | 23.8 ± 2.93 | 14.5 ± 2.02 | 52.2 ± 4.81 | 16.1 ± 2.42 | 128 (≈ 342 µM) | – | 128 (≈ 342 µM) | 256 (≈ 684 µM) | 64 (≈ 171 µM) | 64 (≈ 171 µM) | 128 (≈ 342 µM) | – | – | – | – | –
5 | COc1cc(OC)c2cc(C(=O)NCc3ccc(Cl)cc3)cc(O)c2c1 [8a, N-(4-chlorobenzyl)-4-hydroxy-6,8-dimethoxy-2-naphthamide] | – | 64 (≈ 172 µM) | – | 256 (≈ 689 µM) | 8.61 ± 1.49 | 10.1 ± 1.17 | 25.4 ± 3.02 | 12.4 ± 1.34 | 64 (≈ 172 µM) | – | 64 (≈ 172 µM) | 128 (≈ 344 µM) | 32 (≈ 86.1 µM) | 64 (≈ 172 µM) | 64 (≈ 172 µM) | – | – | – | – | –
6 | COc1cc(OC)c2c(O)cc(C(=O)NCc3ccc(Cl)cc3)cc2c1 [8b, N-(4-chlorobenzyl)-4-hydroxy-5,7-dimethoxy-2-naphthamide] | – | 64 (≈ 172 µM) | – | 256 (≈ 689 µM) | 2.97 ± 0.98 | 7.12 ± 1.25 | 12.8 ± 2.83 | 3.58 ± 1.06 | 16 (≈ 43 µM) | – | 16 (≈ 43 µM) | 16 (≈ 43 µM) | 8 (≈ 21.5 µM) | 16 (≈ 43 µM) | 64 (≈ 172 µM) | – | 0.384 ± 0.047 | 15–20 times | 7.88 ± 0.442 | more than 2 fold
7 | COc1cc(OC)c2c(O)cc(C(=O)NCc3ccc(Br)cc3)cc2c1 [7b, N-(4-bromobenzyl)-4-hydroxy-5,7-dimethoxy-2-naphthamide] | – | 64 (≈ 154 µM) | – | 256 (≈ 615 µM) | 9.83 ± 1.54 | 12.1 ± 1.09 | 21.3 ± 3.04 | 11.5 ± 1.61 | 64 (≈ 154 µM) | – | 32 (≈ 76.9 µM) | 64 (≈ 154 µM) | 32 (≈ 76.9 µM) | 32 (≈ 76.9 µM) | 64 (≈ 154 µM) | – | – | – | – | –

Reference: publication PMC9494668 (ACS Omega, 2022)
